Data from patent US11053226B2, “KRAS G12C inhibitors and methods of using the same” (Amgen Inc., priority 2018, dated 2021).
Read-outs that look alike come from different tables or passages of the source.

How the values were obtained:
[1] = target: GDP-bound KRAS protein (aa 1-169), containing both G12C and C118A amino acid substitutions (Homo sapiens (Human), UniProt P01116, C118A/G12C); assay: Coupled Nucleotide Exchange Assay; type: biochemical
Procedure: For compounds in Table 9, the following assay conditions were employed:
Coupled Nucleotide Exchange Assay:
The assay plates were then read on a PerkinElmer EnVision Multilabel Reader, using AlphaScreen® technology, and data were analyzed using a 4-parameter logistic model to calculate IC50 values.

[2] = tested on: Phosphorylation of ERK1/2 in MIA PaCa-2 cells; assay: Phospho-ERK1/2 MSD Assay; type: cell-based; settings: MiaPaCa-2 cells
[3] = tested on: Phosphorylation of ERK1/2 in A549 cells; assay: Phospho-ERK1/2 MSD Assay (A549); type: cell-based
[4] = read-out: Coupled Exchange IC50 (2 h), 2 h compound pre-incubation
[5] = read-out: Coupled Exchange IC50 (20 h), 20 h compound pre-incubation
[6] = Homo sapiens, MIA PaCa-2, read-out: pERK IC50 (4 h), 4 h compound treatment
[7] = Homo sapiens, read-out: pERK IC50 (4 h), 4 h compound treatment
[8] = Homo sapiens, MIA PaCa-2, 4 h, read-out: pERK IC50 (4 h, MiaPaCa-2), 4 h compound treatment
[9] = Homo sapiens, A549, 4 h, read-out: pERK IC50 (4 h, A549), 4 h compound treatment

GDP-bound KRAS protein (aa 1-169), containing both G12C and C118A amino acid substitutions, sequence (P01116 other isoform, or with tags, fused parts or gaps G12C/C118A): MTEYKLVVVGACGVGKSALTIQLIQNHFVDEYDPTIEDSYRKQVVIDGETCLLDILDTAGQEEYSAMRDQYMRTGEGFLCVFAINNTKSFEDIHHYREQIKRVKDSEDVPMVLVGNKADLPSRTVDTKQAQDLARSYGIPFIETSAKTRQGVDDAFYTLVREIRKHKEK

Row | SMILES | IC50 [1, 4] [µM] | IC50 [1, 5] [µM] | IC50 [2, 6] [µM] | IC50 [3, 7] [µM] | IC50 ([2]; read-out: pERK IC50 (4 h, MiaPaCa-2), 4 h compound treatment) [µM] | IC50 ([3]; read-out: pERK IC50 (4 h, A549), 4 h compound treatment) [µM] | IC50 [2, 8] [µM] | IC50 [3, 9] [µM] | IC50 ([1]; read-out: Coupled Exchange IC50 (5 min), 5 min compound pre-incubation) [µM]
1 | C=CC(=O)N1CC(NC(=O)Cn2cc(-c3c(C)ccc4[nH]ncc34)c3cc(Cl)ccc32)C1 [Example 142] | 3.71 | 0.83 | 44.1 | > 100 |  |  |  |  | 
2 | C=CC(=O)N1CC(NC(=O)Cn2c3c(c4cc([N+](=O)[O-])ccc42)CCCC3)C1 [Example 143] | 4.53 | 0.85 |  |  | 44.9 | > 100 |  |  | 
3 | C=CC(=O)N1CC(NC(=O)Cn2cc(-c3c(O)cccc3F)c3cc(Cl)ccc32)C1 [Example 144] | 3.84 | 0.75 | 46.8 | > 100 |  |  |  |  | 
4 | C=CC(=O)N1CC(NC(=O)Cn2cc(CN3CCc4ccccc4C3)c3cc(Br)ccc32)C1 [Example 145] | 5.7 | 1.12 | 46.9 | 50.9 |  |  |  |  | 
5 | C=CC(=O)N1CC(NC(=O)Cn2cc(C3CC3)c3ccc(-c4ccccc4Cl)cc32)C1 [Example 146] | 3.8 | 0.74 | 47.1 | 74.2 |  |  |  |  | 
6 | C=CC(=O)N1CC(NC(=O)Cn2c(C)c(-c3cccc4ncccc34)c3cc(Cl)ccc32)C1 [Example 147] | 2.6 | 0.52 | 49.6 | > 100 |  |  |  |  | 
7 | COc1cccc2c1CCN(C(=O)c1cn(CC(=O)NC3CN(C(=O)/C=C/CN(C)C)C3)c3ccc(Br)cc13)C2 [Example 149] | 3.6 | 0.68 |  |  |  |  | 50.7 | > 100 | 
8 | C=CC(=O)N1CC(NC(=O)Cn2cc(I)c3ccc(-c4ccccc4Cl)cc32)C1 [Example 150] | 2.92 | 0.59 | 50.8 | > 100 |  |  |  |  | 
9 | C=CC(=O)N1CC(NC(=O)Cn2cc(-c3ccccc3OC)c3cc(Br)ccc32)C1 [Example 151] | 4.33 | 0.92 | 51.2 | 14.6 |  |  |  |  | 
10 | C=CC(=O)N1CC(NC(=O)Cn2cc(C(=O)NCC(CC)Oc3cccc(Cl)c3)c3cc(Br)ccc32)C1 (centres unmarked) [Example 152] | 1.8 | 0.47 |  |  |  |  | 51.6 | 68.8 | 
11 | C=CC(=O)N1CC(NC(=O)Cn2cc(I)c3cc(Br)cc(C)c32)C1 [Example 153] | 1.58 | 0.26 | 51.8 | > 100 |  |  |  |  | 
12 | C=CC(=O)N1CC(NC(=O)Cn2cc(Cl)c3cc(Br)ccc32)C1 [Example 154] | 5.12 | 0.86 | 52.1 | > 100 |  |  |  |  | 56.2
13 | C=CC(=O)N1CC(NC(=O)Cn2cc(C(=O)N(C)CC(=O)Nc3ccc(Cl)c(C(F)(F)F)c3)c3cc(Br)ccc32)C1 [Example 158] | 0.44 | 0.16 |  |  |  |  | 53.9 | > 100 | 
14 | C=CC(=O)N1CC(NC(=O)Cn2c3c(c4cc(Br)ccc42)CCCC3)C1 [Example 160] | 4.95 | 1.07 | 58.3 | > 100 |  |  |  |  | 
15 | C=CC(=O)N1CC(NC(=O)Cn2cc(C(=O)NCCc3ccc(Cl)cc3Cl)c3cc(Br)ccc32)C1 [Example 161] | 0.99 | 0.23 |  |  |  |  | 79.5 | > 100 | 
16 | C=CC(=O)N1CC(NC(=O)Cn2cc(C(=O)NCCc3ccc(Cl)cc3Cl)c3cc(Br)cc(C)c32)C1 [Example 162] | 0.76 | 0.26 |  |  |  |  | 81.5 | > 100 | 
17 | C=CC(=O)N1CC(NC(=O)Cn2c(C(=O)NCc3ccccc3)cc3cc(Br)ccc32)C1 [Example 164] | 10.7 | 1.11 | > 100 | > 100 |  |  |  |  | 
18 | C=CC(=O)N1CC(NC(=O)Cn2ccc3cc(Cl)cc(Cl)c32)C1 [Example 165] | 13.2 | 2.65 | > 100 | > 100 |  |  |  |  | 
19 | C=CC(=O)N1CC(NC(=O)Cn2cc(C(=O)NCCC(=O)Nc3cccc4ccccc34)c3cc(Br)ccc32)C1 [Example 170] | 3 | 0.65 |  |  |  |  | > 100 | > 100 | 
20 | C=CC(=O)N1CC(NC(=O)Cn2cc(C(=O)NCCc3nc(C)c(C)s3)c3cc(Br)ccc32)C1 [Example 176] | 2.8 | 0.6 |  |  |  |  | > 100 | > 100 | 
21 | C=CC(=O)N1CC(NC(=O)Cn2cc(C(=O)NCCC(=O)Nc3ccccc3CC)c3cc(Br)cc(C)c32)C1 [Example 177] | 0.43 | 0.17 |  |  |  |  | > 100 | > 100 | 
22 | C=CC(=O)N1CC(NC(=O)Cn2cc(C(=O)NCCc3ccc(Cl)cc3Cl)c3cc(Cl)cc(Cl)c32)C1 [Example 178] | 0.63 | 0.22 |  |  |  |  | > 100 | > 100 | 
